Columns and labels:
[1] = target: T1, PAR2 (HT-29 cells, trypsin activation) (Homo sapiens, UniProt P55085); test: Ca FLIPR TETRA assay, ANTAGONIST mode, stimulation with 3.1 U/mL trypsin; assay type: cell-based; conditions: HT-29 cells
T1 construct: host or cells: HT-29 cells
T1 sequence (P55085 26-397): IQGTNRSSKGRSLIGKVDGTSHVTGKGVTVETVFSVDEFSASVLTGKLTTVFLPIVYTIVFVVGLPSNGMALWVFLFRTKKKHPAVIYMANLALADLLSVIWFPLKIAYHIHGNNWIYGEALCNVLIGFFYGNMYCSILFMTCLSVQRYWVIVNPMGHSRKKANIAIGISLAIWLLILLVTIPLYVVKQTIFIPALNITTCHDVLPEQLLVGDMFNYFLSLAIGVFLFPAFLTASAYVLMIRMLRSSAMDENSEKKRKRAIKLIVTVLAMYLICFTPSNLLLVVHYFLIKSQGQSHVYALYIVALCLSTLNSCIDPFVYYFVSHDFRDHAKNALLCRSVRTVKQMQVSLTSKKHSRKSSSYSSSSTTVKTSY
Procedure, shortened: (§1)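 Inhibition of activator-evoked Ca2+ flux was recorded on FLIPR Tetra in HT-29 cells after 30 min compound exposure at r.t. A prior read checked whether compounds alone triggered Ca2+ release.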

[2] = test system: UTP-stimulated Ca2+ response in HT-29 cells; test: Ca FLIPR TETRA assay, ANTAGONIST mode, stimulation with 0.6 μM UTP; assay type: cell-based, human; conditions: Homo sapiens, HT-29 cells
Procedure, shortened: as §1

[3] = test system: Thrombin-stimulated Ca2+ response in HT-29 cells; test: Ca FLIPR TETRA assay, ANTAGONIST mode, stimulation with 1 U/mL Thrombin; assay type: cell-based, human; conditions: Homo sapiens, HT-29 cells
Procedure, shortened: as §1

[4] = target: T2, PAR2 (HT-29 cells, SLIGKV activation) (Homo sapiens, UniProt P55085); test: Ca FLIPR TETRA assay, ANTAGONIST mode, stimulation with 8 μM SLIGKV; assay type: cell-based; conditions: HT-29 cells
T2 construct: host or cells: HT-29 cells
T2 sequence (P55085 26-397): T1 sequence (P55085 26-397)
Procedure, shortened: as §1

[5] = stimulation with 3.1 U/mL trypsin
[6] = stimulation with 1 U/mL Thrombin
[7] = antagonist mode, stimulation with 3.1 U/mL trypsin
[8] = antagonist mode, stimulation with 0.6 μM UTP
[9] = antagonist mode, stimulation with 1 U/mL Thrombin
[10] = antagonist mode, stimulation with 8 μM SLIGKV

SMILES | IC50 [1, 5] [nM] | IC50 ([2]; stimulation with 0.6 μM UTP) [nM] | IC50 [3, 6] [nM] | IC50 ([4]; stimulation with 8 μM SLIGKV) [nM] | IC50 [1, 7] [nM] | IC50 [2, 8] [nM] | IC50 [3, 9] [nM] | IC50 [4, 10] [nM] | further results
Cc1cc(-c2ccc(F)cc2)nn2cc(C(=O)N3CCN(C(=O)OC(C)(C)C)[C@@H](C)C3)nc12 [Compound I-2, tert-Butyl (2S)-4-[6-(4-fluorophenyl)-8-methyl-imidazo[1,2-b]pyridazine-2-carbonyl]-2-methyl-piperazine-1-carboxylate] | 2400 | 4700 | 6100 | 860 | – | – | – | – | –
CC(C)c1cc(-c2ccc(F)cc2)nn2cc(C(=O)N3CCN(C(=O)CCN4CCCCC4=O)[C@@H](C)C3)nc12 [Compound I-137] | 240 | 40000 | 43000 | 42 | – | – | – | – | –
CC(C)(C)c1cc(-c2ccc(F)cc2)nn2cc(C(=O)N3CCN(C(=O)CCC#N)CC3(C)C)nc12 [Compound I-566] | – | – | – | – | – | – | – | – | IC50 ([1]; antagonist mode, 3.1 U/mL trypsin): 5.1 nM; IC50 ([2]; antagonist mode, 0.6 μM UTP): > 1000 nM; IC50 ([3]; antagonist mode, 1 U/mL Thrombin): > 1000 nM; IC50 ([4]; antagonist mode, 8 μM SLIGKV): 3 nM
Cc1cc(C(=O)N2CCN(C(=O)c3cn4nc(-c5ccc(C)c(F)c5)cc(C(C)(C)C)c4n3)C(C)(C)C2)[nH]n1 [Compound I-427] | – | – | – | – | 0.7 | > 1000 | > 1000 | 0.5 | –
O=C(c1cn2nc(-c3ccc(F)cc3)cc(C(F)(F)F)c2n1)N1CCCCC1c1ccncc1 (stereo not shown) [Compound I-67] | 3600 | 8100 | 6700 | 3100 | – | – | – | – | –
CC(C)(C)c1cc(C2CCC(F)(F)CC2)nn2cc(C(=O)N3CCN(C(=O)[C@H]4CC[C@@H](C(=O)O)CC4)CC3(C)C)nc12 [Compound I-533] | – | – | – | – | 7.9 | > 1000 | > 1000 | 4.7 | –
CC(C)(C)c1cc(-c2ccc(F)c(Cl)c2)nn2cc(C(=O)N3CCN(C(=O)[C@H]4C[C@@](C)(O)C4)CC3(C)C)nc12 [Compound I-460] | – | – | – | – | 0.7 | > 1000 | > 1000 | 0.5 | –
CC[C@@H](O)C(=O)N1CCN(C(=O)c2cn3nc(-c4ccc(F)cc4)cc(C(C)C)c3n2)C[C@@H]1C [Compound I-118] | 1000 | 27000 | 31000 | 16 | – | – | – | – | –
C[C@H]1CN(C(=O)c2cn3nc(-c4ccc(F)cc4)cc(C(F)(F)F)c3n2)CCN1C(=O)C1CCCCC1 [Compound I-86] | 600 | 37000 | 35000 | 78 | – | – | – | – | –
CC(C)c1cc(-c2ccc(F)cc2)nn2cc(C(=O)N3CCN(C(=O)C(C)(C)O)[C@@H](C)C3)nc12 [Compound I-112] | 1000 | 35000 | 38000 | 2400 | – | – | – | – | –
CC(C)c1cc(-c2ccc(F)c(Cl)c2)nn2cc(C(=O)N3CCN(C(=O)[C@H]4C[C@](O)(C(F)(F)F)C4)CC3(C)C)nc12 [Compound I-500] | – | – | – | – | 0.4 | > 1000 | > 1000 | 0.3 | –
C[C@H]1CN(C(=O)c2cn3nc(-c4ccc(F)cc4)cc(C(F)(F)F)c3n2)CCN1C(=O)C(O)c1cccnc1 (stereo partly shown) [Compound I-100] | 3000 | 48000 | 43000 | 200 | – | – | – | – | –
CC(C)c1cc(-c2ccc(F)cc2)nn2cc(C(=O)N3CCN(C(=O)[C@H](O)CC(C)(C)C)C[C@@H]3C)nc12 [Compound I-197] | – | – | – | – | 430 | > 1000 | > 1000 | 150 | –
CC(C)c1cc(-c2ccc(F)cc2)nn2cc(C(=O)N3CCN(C(=O)C(C)(O)C(F)(F)F)CC3(C)C)nc12 (stereo not shown) [Compound I-313] | – | – | – | – | 11.4 | > 1000 | > 1000 | 15.2 | –
CC(C)c1cc(-c2ccc(C(F)(F)F)cc2)nn2cc(C(=O)N3CCN(C(=O)c4ncccn4)CC3(C)C)nc12 [Compound I-370] | – | – | – | – | 10.4 | > 1000 | > 1000 | 7.7 | –
CC(C)(C)c1cc(-c2ccc(F)cc2)nn2cc(C(=O)N3CCN(C(=O)c4ccncn4)CC3(C)C)nc12 [Compound I-231] | – | – | – | – | 1.6 | > 1000 | > 1000 | 1.1 | –
